Counter-ions that a name gives are not always drawn.
What follows are molecules tested against human GlyT1c transporter (Homo sapiens (Human), UniProt P48067) (assay: Radioligand binding assay using recombinant CHO cell membranes expressing human GlyT1). Settings: human GlyT1c-expressing CHO cell membranes; read-out: radioligand binding Kiapp.
Chain of human GlyT1c transporter (P48067 whole entry): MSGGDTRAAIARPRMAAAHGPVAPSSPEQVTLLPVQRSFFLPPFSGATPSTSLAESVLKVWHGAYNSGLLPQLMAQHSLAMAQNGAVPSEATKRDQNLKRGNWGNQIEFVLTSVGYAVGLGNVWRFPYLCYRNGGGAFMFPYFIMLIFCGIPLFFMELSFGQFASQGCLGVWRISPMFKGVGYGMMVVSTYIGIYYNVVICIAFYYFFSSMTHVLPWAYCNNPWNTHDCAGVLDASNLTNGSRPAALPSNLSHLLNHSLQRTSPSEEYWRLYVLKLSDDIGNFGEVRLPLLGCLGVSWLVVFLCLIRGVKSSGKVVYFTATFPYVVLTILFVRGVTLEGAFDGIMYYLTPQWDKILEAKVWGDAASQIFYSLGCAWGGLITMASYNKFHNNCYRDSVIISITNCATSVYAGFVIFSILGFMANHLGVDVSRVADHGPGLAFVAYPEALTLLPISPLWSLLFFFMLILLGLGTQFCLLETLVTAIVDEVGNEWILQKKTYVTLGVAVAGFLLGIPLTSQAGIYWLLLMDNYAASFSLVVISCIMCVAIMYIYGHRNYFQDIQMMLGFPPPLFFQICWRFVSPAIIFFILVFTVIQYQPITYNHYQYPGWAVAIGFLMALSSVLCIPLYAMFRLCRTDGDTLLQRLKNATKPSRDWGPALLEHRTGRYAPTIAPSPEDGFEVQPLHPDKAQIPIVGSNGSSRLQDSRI
Text: 2. Radioligand binding assays using recombinant CHO cell membranes expressing human GlyT1: […]
For `NC1CCc2ccc(OCCNS(=O)(=O)CC3CC3)cc2C1Cc1ccccc1Cl` (stereo not shown) [Example 295, N-{2-[7-Amino-8-(2-chloro-benzyl)-5,6,7,8-tetrahydro-naphthalen-2-yloxy]-ethyl}-C-cyclopropyl-methanesulfonamide hydrochloride], the Ki was ≤ 1000 nM.
In the case of `NC1CCc2ccc(CCCNS(=O)(=O)CC3CC3)cc2C1Cc1cccc(Cl)c1` (stereo not shown) [Example 296, N-{3-[7-Amino-8-(3-chloro-benzyl)-5,6,7,8-tetrahydro-naphthalen-2-yl]-propyl}-C-cyclopropyl-methanesulfonamide hydrochloride], the Ki is reported as ≤ 100 nM.
With `CCCS(=O)(=O)NCCCc1ccc2c(c1)C(Cc1cccc(Cl)c1)C(N)CC2` (stereo not shown) [Example 297, Propane-1-sulfonic acid {3-[7-amino-8-(3-chloro-benzyl)-5,6,7,8-tetrahydro-naphthalen-2-yl]-propyl}-amide hydrochloride] the Ki was ≤ 100 nM.
`CCOC(=O)NC1CCc2ccc(OCCNS(=O)(=O)c3cn(C)cn3)cc2C1Cc1ccccc1Cl` (stereo not shown) [Example 298, {1-(2-Chloro-benzyl)-7-[2-(1-methyl-1H-imidazole-4-sulfonylamino)-ethoxy]-1,2,3,4-tetrahydro-naphthalen-2-yl}-carbamic acid ethyl ester] was tested, and the Ki was ≤ 10000 nM.
For `CCOC(=O)NC1CCc2ccc(OCCNS(=O)(=O)c3cnn(C)c3)cc2C1Cc1ccccc1Cl` (stereo not shown) [Example 299, {1-(2-Chloro-benzyl)-7-[2-(1-methyl-1H-pyrazole-4-sulfonylamino)-ethoxy]-1,2,3,4-tetrahydro-naphthalen-2-yl}-carbamic acid ethyl ester], the Ki was > 10000 nM.
In the case of `CNC1CCc2ccc(OCCNS(=O)(=O)CC3CC3)cc2C1Cc1cccc(Cl)c1` (stereo not shown) [Example 300, N-{2-[8-(3-Chloro-benzyl)-7-methylamino-5,6,7,8-tetrahydro-naphthalen-2-yloxy]-ethyl}-C-cyclopropyl-methanesulfonamide hydrochloride], the Ki is reported as ≤ 10 nM.
In the case of `Cn1cc(S(=O)(=O)NCCOc2ccc3c(c2)C(Cc2ccccc2Cl)C(N)CC3)cn1` (stereo not shown) [Example 301, 1-Methyl-1H-pyrazole-4-sulfonic acid {2-[7-amino-8-(2-chloro-benzyl)-5,6,7,8-tetrahydronaphthalen-2-yloxy]-ethyl}-amide hydrochloride], the Ki is reported as ≤ 10 nM.
In the case of `CNC1CCc2ccc(OCCNS(=O)(=O)c3cnn(C)c3)cc2C1Cc1ccccc1Cl` (stereo not shown) [Example 302, 1-Methyl-1H-pyrazole-4-sulfonic acid {2-[8-(2-chloro-benzyl)-7-methylamino-5,6,7,8-tetrahydro-naphthalen-2-yloxy]-ethyl}-amide hydrochloride], the Ki is reported as ≤ 100 nM.
For `CNC1CCc2ccc(OCCNS(=O)(=O)c3cn(C)cn3)cc2C1Cc1ccccc1Cl` (stereo not shown) [Example 303, 1-Methyl-1H-imidazole-4-sulfonic acid {2-[8-(2-chloro-benzyl)-7-methylamino-5,6,7,8-tetrahydro-naphthalen-2-yloxy]-ethyl}-amide hydrochloride], the Ki was ≤ 100 nM.
For `CCCS(=O)(=O)NCCc1ccc2c(c1)C(Cc1cccc(Cl)c1)C(N)CC2` (stereo not shown) [Example 304, Propane-1-sulfonic acid {2-[7-amino-8-(3-chloro-benzyl)-5,6,7,8-tetrahydro-naphthalen-2-yl]-ethyl}-amide hydrochloride], the Ki was ≤ 1000 nM.
`Cn1cnc(S(=O)(=O)NCCOc2ccc3c(c2)C(Cc2ccccc2Cl)C(N)CC3)c1` (stereo not shown) [Example 305, 1-Methyl-1H-imidazole-4-sulfonic acid {2-[7-amino-8-(2-chloro-benzyl)-5,6,7,8-tetrahydronaphthalen-2-yloxy]-ethyl}-amide hydrochloride] was tested, and the Ki was ≤ 100 nM.
With `CC(=O)NC1CCc2ccc(OCCNS(=O)(=O)CC3CC3)cc2C1Cc1cccc(Cl)c1` (stereo not shown) [Example 306, N-[1-(3-Chloro-benzyl)-7-(2-cyclopropylmethanesulfonylamino-ethoxy)-1,2,3,4-tetrahydronaphthalen-2-yl]-acetamide] the Ki was ≤ 100 nM.
With `CCNC1CCc2ccc(OCCNS(=O)(=O)CC3CC3)cc2C1Cc1cccc(Cl)c1` (stereo not shown) [Example 307, N-{2-[8-(3-Chloro-benzyl)-7-ethylamino-5,6,7,8-tetrahydro-naphthalen-2-yloxy]-ethyl}-C-cyclopropyl-methanesulfonamide hydrochloride] the Ki was ≤ 10 nM.
With `CCCS(=O)(=O)NCCCc1ccc2c(c1)C(Cc1cccc(Cl)c1)C(NC)CC2` (stereo not shown) [Example 308, Propane-1-sulfonic acid {3-[8-(3-chloro-benzyl)-7-methylamino-5,6,7,8-tetrahydronaphthalen-2-yl]-propyl}-amide hydrochloride] the Ki was ≤ 10 nM.
In the case of `CCCS(=O)(=O)NCCc1ccc2c(c1)C(Cc1cccc(Cl)c1)C(NC)CC2` (stereo not shown) [Example 309, Propane-1-sulfonic acid {2-[8-(3-chloro-benzyl)-7-methylamino-5,6,7,8-tetrahydronaphthalen-2-yl]-ethyl}-amide], the Ki is reported as ≤ 100 nM.
`NC1CCc2ccc(CCNS(=O)(=O)CC3CC3)cc2C1Cc1cccc(Cl)c1` (stereo not shown) [Example 310, N-{2-[7-Amino-8-(3-chloro-benzyl)-5,6,7,8-tetrahydro-naphthalen-2-yl]-ethyl}-C-cyclopropyl-methanesulfonamide hydrochloride] was tested, and the Ki was ≤ 1000 nM.
For `CCCS(=O)(=O)NCCOc1ccc2c(c1)C(Cc1ccccc1F)C(NC)CC2` (stereo not shown) [Example 311, Propane-1-sulfonic acid {2-[8-(2-fluoro-benzyl)-7-methylamino-5,6,7,8-tetrahydronaphthalen-2-yloxy]-ethyl}-amide hydrochloride], the Ki was ≤ 100 nM.
With `CNC1CCc2ccc(OCCNS(=O)(=O)CC3CC3)cc2C1Cc1ccccc1F` (stereo not shown) [Example 312, C-Cyclopropyl-N-{2-[8-(2-fluoro-benzyl)-7-methylamino-5,6,7,8-tetrahydro-naphthalen-2-yloxy]-ethyl}-methanesulfonamide hydrochloride] the Ki was ≤ 100 nM.
With `CNC1CCc2ccc(CCNS(=O)(=O)c3cn(C)cn3)cc2C1Cc1cccc(Cl)c1` (stereo not shown) [Example 313, 1-Methyl-1H-imidazole-4-sulfonic acid {2-[8-(3-chloro-benzyl)-7-methylamino-5,6,7,8-tetrahydro-naphthalen-2-yl]-ethyl}-amide] the Ki was ≤ 100 nM.
In the case of `CCCS(=O)(=O)NCCOc1ccc2c(c1)C(CC1CCCCC1)C(NC)CC2` (stereo not shown) [Example 314, Propane-1-sulfonic acid [2-(8-cyclohexylmethyl-7-methylamino-5,6,7,8-tetrahydronaphthalen-2-yloxy)-ethyl]-amide trifluoroacetate], the Ki is reported as ≤ 1000 nM.
In the case of `Cn1cnc(S(=O)(=O)NCCOc2ccc3c(c2)C(Cc2ccccc2Cl)C(N2CCCC2)CC3)c1` (stereo not shown) [Example 315, 1-Methyl-1H-imidazole-4-sulfonic acid {2-[8-(2-chloro-benzyl)-7-pyrrolidin-1-yl-5,6,7,8-tetrahydro-naphthalen-2-yloxy]-ethyl}-amide hydrochloride], the Ki is reported as ≤ 1000 nM.
In the case of `Cc1nc(S(=O)(=O)NCCOc2ccc3c(c2)C(Cc2cccc(Cl)c2)C(N)CC3)cn1C` (stereo not shown) [Example 316, 1,2-Dimethyl-1H-imidazole-4-sulfonic acid {2-[7-amino-8-(3-chloro-benzyl)-5,6,7,8-tetrahydro-naphthalen-2-yloxy]-ethyl}-amide hydrochloride], the Ki is reported as ≤ 1000 nM.
In the case of `O=S(=O)(CC1CC1)NCCOc1ccc2c(c1)C(Cc1cccc(Cl)c1)C(N1CCCC1)CC2` (stereo not shown) [Example 317, N-{2-[8-(3-Chloro-benzyl)-7-pyrrolidin-1-yl-5,6,7,8-tetrahydro-naphthalen-2-yloxy]-ethyl}-C-cyclopropyl-methanesulfonamide hydrochloride], the Ki is reported as ≤ 100 nM.
With `Cn1cc(S(=O)(=O)NCCOc2ccc3c(c2)C(Cc2cccc(Cl)c2)C(N2CCCC2)CC3)cn1` (stereo not shown) [Example 318, 1-Methyl-1H-pyrazole-4-sulfonic acid {2-[8-(3-chloro-benzyl)-7-pyrrolidin-1-yl-5,6,7,8-tetrahydro-naphthalen-2-yloxy]-ethyl}-amide hydrochloride] the Ki was ≤ 10 nM.
`Cn1cnc(S(=O)(=O)NCCOc2ccc3c(c2)C(Cc2cccc(Cl)c2)C(N2CCCC2)CC3)c1` (stereo not shown) [Example 319, 1-Methyl-1H-imidazole-4-sulfonic acid {2-[8-(3-chloro-benzyl)-7-pyrrolidin-1-yl-5,6,7,8-tetrahydro-naphthalen-2-yloxy]-ethyl}-amide hydrochloride] was tested, and the Ki was ≤ 100 nM.
With `O=S(=O)(CC1CC1)NCCOc1ccc2c(c1)C(Cc1cccc(Cl)c1)C(N1CCC1)CC2` (stereo not shown) [Example 320, N-{2-[7-Azetidin-1-yl-8-(3-chloro-benzyl)-5,6,7,8-tetrahydro-naphthalen-2-yloxy]-ethyl}-C-cyclopropyl-methanesulfonamide] the Ki was ≤ 100 nM.
With `Cn1cnc(S(=O)(=O)NCCOc2ccc3c(c2)C(Cc2cccc(Cl)c2)C(N2CCC2)CC3)c1` (stereo not shown) [Example 321, 1-Methyl-1H-imidazole-4-sulfonic acid {2-[7-azetidin-1-yl-8-(3-chloro-benzyl)-5,6,7,8-tetrahydro-naphthalen-2-yloxy]-ethyl}-amide hydrochloride] the Ki was ≤ 10 nM.
In the case of `Cn1cc(S(=O)(=O)NCCOc2ccc3c(c2)C(Cc2cccc(Cl)c2)C(N2CCC2)CC3)cn1` (stereo not shown) [Example 322, 1-Methyl-1H-pyrazole-4-sulfonic acid {2-[7-azetidin-1-yl-8-(3-chloro-benzyl)-5,6,7,8-tetrahydro-naphthalen-2-yloxy]-ethyl}-amide hydrochloride], the Ki is reported as ≤ 10 nM.
In the case of `CCCS(=O)(=O)NCCOc1ccc2c(c1)C(Cc1cccc(Cl)c1)C(N1CCCC1)CC2` (stereo not shown) [Example 323, Propane-1-sulfonic acid {2-[8-(3-chloro-benzyl)-7-pyrrolidin-1-yl-5,6,7,8-tetrahydronaphthalen-2-yloxy]-ethyl}-amide hydrochloride], the Ki is reported as ≤ 1000 nM.
For `Cn1cc(S(=O)(=O)NCCOc2ccc3c(c2)C(Cc2ccccc2)C(N2CCC2)CC3)cn1` (stereo not shown) [Example 324, 1-Methyl-1H-pyrazole-4-sulfonic acid [2-(7-azetidin-1-yl-8-benzyl-5,6,7,8-tetrahydronaphthalen-2-yloxy)-ethyl]amide hydrochloride], the Ki was ≤ 10 nM.
For `CCCS(=O)(=O)CCc1ccc2c(c1)C(Cc1cccc(Cl)c1)C(N)CC2` (stereo not shown) [Example 326, 1-(3-Chloro-benzyl)-7-[2-(propane-1-sulfonyl)-ethyl]-1,2,3,4-tetrahydro-naphthalen-2-ylamine hydrochloride], the Ki was ≤ 1000 nM.
